Test results reported in patent US20100298141A1, “SUBSTITUTED PYRIDINE N-OXIDE HERBICIDES” (E. I. DU PONT DE NEMOURS AND COMPANY, priority 2007, published 2010).

Key:
[1] = tested on: pigweed; test: Test C pre-/postemergence test; format: in vivo, Amaranthus retroflexus
In short: (§1)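 Test chemicals were formulated with surfactant in a non-phytotoxic solvent and sprayed both on freshly planted seeds (preemergence) and on 1- to 4-leaf plants of 2–18 cm (postemergence). Flooded-paddy pots received compound directly into 3 cm of standing water, maintained for the test.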

[2] = tested on: crabgrass; test: Test C pre-/postemergence test; format: in vivo, Digitaria sanguinalis
In short: as §1

[3] = tested on: velvetleaf; test: Test C pre-/postemergence test; format: in vivo, Abutilon theophrasti
In short: as §1

[4] = tested on: Surinam grass; test: Test C pre-/postemergence test; format: in vivo, Brachiaria decumbens
In short: as §1

[5] = tested on: corn; test: Test A pre-/postemergence greenhouse test; format: in vivo, Zea mays; conditions: for Corn plant response rating: 0 to 100 scale; for Plant response rating, Corn: 0 to 100 scale where 0 is no effect and 100 is complete control
In short: (§2)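 Test compounds in non-phytotoxic solvent with surfactant were applied as a preemergence soil spray to seeded loam/sand pots and, concurrently, postemergence to plants at 2–10 cm, one- to two-leaf stage. About ten days in greenhouse, then injury visually rated against untreated controls.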

[6] = tested on: blackgrass; test: Test C pre-/postemergence test; format: in vivo, Alopecurus myosuroides; conditions: Postemergence; for Plant response rating, Blackgrass: scale 0 to 100, 0 no effect, 100 complete control
In short: as §1

[7] = tested on: wheat; test: Test C pre-/postemergence test; format: in vivo, Triticum aestivum; conditions: Postemergence; for Plant response rating, Wheat: scale 0 to 100, 0 no effect, 100 complete control
In short: as §1

[8] = tested on: wild oat; test: Test C pre-/postemergence test; format: in vivo, Avena fatua; conditions: Postemergence; for Plant response rating, Oat, Wild: scale 0 to 100, 0 no effect, 100 complete control
In short: as §1

[9] = tested on: eastern black nightshade; test: Test C pre-/postemergence test; format: in vivo, Solanum ptycanthum
Text: Seeds of plant species selected from blackgrass (Alopecurus myosuroides), downy brome (Bromus tectorum), green foxtail (Setaria viridis), Italian ryegrass (Lolium multiflorum), wheat (Triticum aestivum), wild oat (Avena fatua), catchweed bedstraw (Galium aparine), Russian thistle (Salsola kali), […] (Cynodon dactylon), Surinam grass (Brachiaria decumbens), cocklebur (Xanthium strumarium), corn (Zea mays), crabgrass (Digitaria sanguinalis), woolly cupgrass (Eriochloa villosa), giant foxtail (Setaria faberii), Goosegrass (Eleusin indica), johnsongrass (Sorghum halepense), kochia (Kochia scoparia), lambsquarters (Chenopodium album), morningglory (Ipomoea coccinea), eastern black nightshade (Solanum ptycanthum), yellow nutsedge (Cyperus esculentus), pigweed (Amaranthus retroflexus), common ragweed (Ambrosia elation), soybean (Glycine max), common (oilseed) sunflower (Helianthus annuus), and velvetleaf (Abutilon theophrasti) were planted and treated preemergence with test chemicals formulated in a non-phytotoxic solvent mixture which included a surfactant. At the same time, plants selected from these crop and weed species and also winter barley (Hordeum vulgare), canarygrass (Phalaris minor), and chickweed (Stellaria media) were treated with postemergence applications of some of the test chemicals formulated in the same manner. Plants ranged in height from 2 to 18 cm (1- to 4-leaf stage) for postemergence treatments. […] At time of treatment, test pots were flooded to 3 cm above the soil surface, treated by application of test compounds directly to the paddy water, and then maintained at that water depth for the duration of the test. […] A dash (-) response means no test result.

[10] = tested on: redroot pigweed; test: Test A pre-/postemergence greenhouse test; format: in vivo, Amaranthus retroflexus; conditions: for Pigweed plant response rating: 0 to 100 scale; for Plant response rating, Pigweed: 0 to 100 scale where 0 is no effect and 100 is complete control
In short: as §2

[11] = tested on: bermudagrass; test: Test C pre-/postemergence test; format: in vivo, Cynodon dactylon
In short: as §1

[12] = tested on: kochia; test: Test C pre-/postemergence test; format: in vivo, Kochia scoparia
In short: as §1

[13] = tested on: common (oilseed) sunflower; test: Test C pre-/postemergence test; format: in vivo, Helianthus annuus
In short: as §1

[14] = tested on: rice; test: Test C flooded paddy test; format: in vivo, Oryza sativa; conditions: Flood
In short: (§3)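 Greenhouse pots flooded to 3 cm above soil at time of treatment received compound via the water, which stayed at that level.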

[15] = tested on: duck salad; test: Test C flooded paddy test; format: in vivo, Heteranthera limosa; conditions: Flood
In short: as §3

[16] = tested on: barnyardgrass; test: Test C flooded paddy test; format: in vivo, Echinochloa crus-galli; conditions: Flood
In short: as §3

[17] = 62 g ai/ha, preemergence, scale 0 (no effect) to 100 (complete control)
[18] = Postemergence, 125 g ai/ha, scale 0 to 100, 0 no effect, 100 complete control
[19] = Postemergence, 250 g ai/ha, scale 0 to 100, 0 no effect, 100 complete control
[20] = 31 g ai/ha, Preemergence, scale 0 to 100
[21] = Postemergence, 62 g ai/ha, scale 0 to 100, 0 no effect, 100 complete control
[22] = preemergence, 125 g ai/ha, scale 0 (no effect) to 100 (complete control)
[23] = Postemergence, 125 g ai/ha, 0 is no effect, 100 is complete control
[24] = Postemergence, 500 g ai/ha, 0 is no effect, 100 is complete control
[25] = Preemergence, 125 g ai/ha, 0 no effect, 100 complete control
[26] = 62 g ai/ha, Preemergence, scale 0 to 100
[27] = 125 g ai/ha, preemergence, scale 0 (no effect) to 100 (complete control)
[28] = Preemergence, 31 g ai/ha, scale 0 to 100 (0 no effect, 100 complete control)
[29] = preemergence, 250 g ai/ha, scale 0 (no effect) to 100 (complete control)
[30] = 31 g ai/ha, scale 0 to 100 (0 no effect, 100 complete control)
[31] = 62 g ai/ha, scale 0 to 100, 0 no effect, 100 complete control, 13 to 15 days
[32] = 125 g ai/ha, scale 0 to 100, 0 no effect, 100 complete control, 13 to 15 days
[33] = 250 g ai/ha, scale 0 to 100, 0 no effect, 100 complete control, 13 to 15 days

## Cn1nc(C(F)(F)F)c(C[S+]([O-])c2ccc(Cl)c[n+]2[O-])c1OC(F)F (stereo not drawn) [Compound 6]
[1]; [17]
  Pigweed plant response rating: 100
[1]; Postemergence, 31 g ai/ha
  Plant response rating (0 to 100), Pigweed: 0
[1]; Postemergence, 62 g ai/ha
  Plant response rating (0 to 100), Pigweed: 0
[1]; [18]
  Plant response rating, Pigweed: 0
[1]; [19]
  Plant response rating, Pigweed: 0
[1]; Preemergence, 250 g ai/ha
  Plant response rating (0 to 100), Pigweed: 100
[2]; [20]
  Crabgrass, Large plant response rating: 98
[2]; [17]
  Crabgrass, Large plant response rating: 100
[2]; Postemergence, 31 g ai/ha
  Plant response rating (0 to 100), Crabgrass, Large: 5
[2]; [21]
  Plant response rating, Crabgrass, Large: 10
[2]; [18]
  Plant response rating, Crabgrass, Large: 40
[2]; [19]
  Plant response rating, Crabgrass, Large: 45
[2]; Preemergence, 250 g ai/ha
  Plant response rating (0 to 100), Crabgrass, Large: 100
[2]; [22]
  Crabgrass, Large plant response rating: 100
[3]; [17]
  Velvetleaf plant response rating: 0
[3]; Postemergence, 31 g ai/ha
  Plant response rating (0 to 100), Velvetleaf: 0
[3]; Postemergence, 62 g ai/ha
  Plant response rating (0 to 100), Velvetleaf: 10
[3]; [18]
  Plant response rating, Velvetleaf: 30
[3]; [19]
  Plant response rating, Velvetleaf: 50
[3]; Preemergence, 250 g ai/ha
  Plant response rating (0 to 100), Velvetleaf: 40
[4]; [17]
  Surinam Grass plant response rating: 98
[4]; Postemergence, 31 g ai/ha
  Plant response rating (0 to 100), Surinam Grass: 0
[4]; Postemergence, 62 g ai/ha
  Plant response rating (0 to 100), Surinam Grass: 0
[4]; [18]
  Plant response rating, Surinam Grass: 30
[4]; [19]
  Plant response rating, Surinam Grass: 30
[4]; Preemergence, 250 g ai/ha
  Plant response rating (0 to 100), Surinam Grass: 100
[4]; [22]
  Surinam Grass plant response rating: 100
[5]; [23]
  Corn plant response rating: 60
[5]; [24]
  Corn plant response rating: 80
[5]; [25]
  Corn plant response rating: 80
[5]; Preemergence, 500 g ai/ha
  Plant response rating, Corn: 90
[6]; 31 g ai/ha
  Plant response rating (0 to 100), Blackgrass: 0
[6]; 62 g ai/ha
  Plant response rating, Blackgrass: 50
[6]; 125 g ai/ha
  Plant response rating, Blackgrass: 50
[6]; 250 g ai/ha
  Plant response rating, Blackgrass: 50
[7]; 31 g ai/ha
  Plant response rating (0 to 100), Wheat: 20
[7]; 62 g ai/ha
  Plant response rating (0 to 100), Wheat: 20
[7]; 125 g ai/ha
  Plant response rating, Wheat: 20
[7]; 250 g ai/ha
  Plant response rating, Wheat: 25
[8]; 31 g ai/ha
  Plant response rating (0 to 100), Oat, Wild: 20
[8]; 62 g ai/ha
  Plant response rating, Oat, Wild: 50
[8]; 250 g ai/ha
  Plant response rating, Oat, Wild: 60
[9]; [17]
  Nightshade plant response rating: 98
[9]; Preemergence, 250 g ai/ha
  Plant response rating (0 to 100), Nightshade: 100
[10]; [23]
  Pigweed plant response rating: 100
[10]; [24]
  Pigweed plant response rating: 100
[10]; [25]
  Pigweed plant response rating: 100
[10]; Preemergence, 500 g ai/ha
  Plant response rating, Pigweed: 100
[11]; [20]
  Bermudagrass plant response rating: 98
[11]; [17]
  Bermudagrass plant response rating: 98
[11]; Postemergence, 31 g ai/ha
  Plant response rating (0 to 100), Bermudagrass: 0
[11]; [21]
  Plant response rating, Bermudagrass: 10
[11]; [18]
  Plant response rating, Bermudagrass: 50
[11]; [19]
  Plant response rating, Bermudagrass: 80
[11]; Preemergence, 250 g ai/ha
  Plant response rating (0 to 100), Bermudagrass: 100
[11]; [22]
  Bermudagrass plant response rating: 100
[12]; [17]
  Kochia plant response rating: 0
[12]; Postemergence, 31 g ai/ha
  Plant response rating (0 to 100), Kochia: 0
[12]; [21]
  Plant response rating, Kochia: 0
[12]; [18]
  Plant response rating, Kochia: 0
[12]; [19]
  Plant response rating, Kochia: 0
[12]; Preemergence, 250 g ai/ha
  Plant response rating (0 to 100), Kochia: 0
[13]; [17]
  Sunflower plant response rating: 0
[13]; Preemergence, 250 g ai/ha
  Plant response rating (0 to 100), Sunflower: 10
[13]; [22]
  Sunflower plant response rating: 5

## Cn1nc(C(F)(F)F)c(C[S+]([O-])c2cc(Cl)cc[n+]2[O-])c1Cl (racemic) [Compound 39]
[1]; [26]
  Pigweed plant response rating: 100
[1]; [27]
  Pigweed plant response rating: 100
[1]; [28]
  Plant response rating, Pigweed: 100
[1]; [29]
  Pigweed plant response rating: 100
[2]; [26]
  Crabgrass, Large plant response rating: 90
[2]; [27]
  Crabgrass, Large plant response rating: 100
[2]; [28]
  Plant response rating, Crabgrass, Large: 80
[2]; [29]
  Crabgrass, Large plant response rating: 100
[3]; [26]
  Velvetleaf plant response rating: 45
[3]; [27]
  Velvetleaf plant response rating: 60
[3]; [28]
  Plant response rating, Velvetleaf: 30
[3]; [29]
  Velvetleaf plant response rating: 100
[4]; [26]
  Surinam Grass plant response rating: 80
[4]; [27]
  Surinam Grass plant response rating: 90
[4]; [28]
  Plant response rating, Surinam Grass: 60
[4]; [29]
  Surinam Grass plant response rating: 90
[14]; [30]
  Plant response rating, Rice: 0
[14]; [31]
  Plant response rating, Rice: 10
[14]; [32]
  Plant response rating, Rice: 40
[14]; [33]
  Plant response rating, Rice: 65
[5]; [23]
  Corn plant response rating: 30
[5]; [24]
  Corn plant response rating: 50
[5]; [25]
  Corn plant response rating: 30
[5]; Preemergence, 500 g ai/ha
  Plant response rating, Corn: 50
[15]; [30]
  Plant response rating, Ducksalad: 70
[15]; [31]
  Plant response rating, Ducksalad: 80
[15]; [32]
  Plant response rating, Ducksalad: 90
[15]; [33]
  Plant response rating, Ducksalad: 95
[16]; [30]
  Plant response rating, Barnyardgrass: 0
[16]; [31]
  Plant response rating, Barnyardgrass: 0
[16]; [32]
  Plant response rating, Barnyardgrass: 30
[16]; [33]
  Plant response rating, Barnyardgrass: 65
[9]; [26]
  Nightshade plant response rating: 90
[9]; [27]
  Nightshade plant response rating: 95
[9]; [28]
  Plant response rating, Nightshade: 75
[9]; [29]
  Nightshade plant response rating: 98
[10]; [23]
  Pigweed plant response rating: 60
[10]; [24]
  Pigweed plant response rating: 100
[10]; [25]
  Pigweed plant response rating: 100
[10]; Preemergence, 500 g ai/ha
  Plant response rating, Pigweed: 100
[11]; 62 g ai/ha, Preemergence, scale 0 to 100 (0 no effect, 100 complete control)
  Bermudagrass plant response rating: 100
[11]; [27]
  Bermudagrass plant response rating: 100
[11]; [28]
  Plant response rating, Bermudagrass: 85
[11]; [29]
  Bermudagrass plant response rating: 100
[12]; [26]
  Kochia plant response rating: 0
[12]; [27]
  Kochia plant response rating: 60
[12]; [28]
  Plant response rating, Kochia: 0
[12]; [29]
  Kochia plant response rating: 100
[13]; [26]
  Sunflower plant response rating: 0
[13]; [27]
  Sunflower plant response rating: 0
[13]; [28]
  Plant response rating, Sunflower: 0
[13]; [29]
  Sunflower plant response rating: 75
